{"source": "patent US20230189821A1", "about": "“PESTICIDAL COMPOSITIONS WITH ENHANCED PHYSICAL CHARACTERISTICS” (Terramera, Inc., priority 2020, published 2023)"}
{"test": "Melting point of oil/aliphatic acid mixtures by differential scanning calorimeter (DSC)", "assay_type": "physicochemical", "method": "Eleven exemplary pesticidal compositions, each comprising a different mixture ratio of neem oil and octanoic acid, were prepared according to the following description. Each composition comprised a combined 10-20 mg of cold-pressed neem oil and octanoic acid. The neem oil and octanoic acid were passively mixed by commingling in liquid phase in the testing vessel (an aluminum pan with an aluminum cap) at a temperature above each ingredient's melting point. Mixture ratios were determined by weight—e.g. a 10 mg mixture in 60:40 ratio would comprise 6 mg of neem oil and 4 mg of octanoic acid. The mixture's melting point was then measured by a differential scanning calorimeter (DSC), and particularly by a TA Instruments® DSC Q2000™ differential scanning calorimeter. The following method was used for DSC measurement of each mixture: the mixture was equilibrated at 40° C., then isothermally held for 15 minutes, then equilibrated at −30° C., and then ramped at 5° C./minute to 70° C. […]\n(§1) Eleven exemplary pesticidal compositions, each comprising a different mixture ratio of palm oil and octanoic acid, were prepared according to the following description. […] Mixture ratios were determined by weight—e.g. a 10 mg mixture in 60:40 ratio would comprise 6 mg of palm oil and 4 mg of octanoic acid. The mixture's melting point was then measured by differential scanning calorimeter. […]\nas §1, with “coconut” for “palm”\nas §1, with “karanja” for “palm”, “acid.” for “acid. The mixture's melting point was then measured by differential scanning calorimeter.”"}
{"smiles": "CCCCCCCCCC(=O)O", "note": "[decanoic acid]", "Melting Point": "about 11.36 °C"}
{"smiles": "CC/C=C/CC(=O)O", "note": "[trans-3 hexenoic acid]", "Melting Point": "about 11.36 °C"}
{"smiles": "CCCCCCCC/C=C\\CCCCCCCC(=O)O", "note": "[oleic acid]", "Melting Point": "about 11.31 °C"}
